Assay results from patent publication US8232407B2, “Nitrogenous heterocyclic compounds with insecticidal activity, and the preparation and use thereof” (East China University of Science and Technology, priority 2008, dated 2012).

Assays:
Assay type in all cases: in vivo
Nilaparvata lugens = assay: Insecticidal activities to plant hopper, spraying method
Experimental: (§1) Mortality (%)=(the number of the survival aphis in control group−the number of the survival aphis in the treatment group)/the number of the survival aphis in control group×100%
(2): Insecticidal Activities to Plant hopper
Plant hopper (Nilaparvata lugens), which belongs to Homoptera and has a piercing-sucking mouthpart, is a common insect for agricultural plant. Nilaparvata lugens was tested by spraying method.
Procedure: the test compound was exactly formulated with acetone to form solutions having concentrations of 500, 250, 100, 50, 25, 12.5, 6.25, 3.13, 1.57 and 0.79 ppm, respectively. Aqueous acetone solution was used as control. Each treatment was repeated for 3 tumblers (3 times). Two ml of solution was sprayed uniformly to each tumbler with a mini manual sprayer. 10 insects were introduced to every basin 6 hours before spraying. Three series of experiments were conducted. The number of killed insects was counted after 24 hours to calculate the mortality according to the above mentioned formula.

[1] = test system: Pseudaletia separate Walker; assay: Insecticidal activities to armyworm, leaf dipping and feeding
Experimental: as §1
(3): Insecticidal Activities to Armyworm
Armyworm (Pseudaletia separate Walker) was tested by the way of leaf dipping and feeding. The test compound was exactly formulated with acetone into solutions having concentrations of 500, 250, 100, 50, 25, 12.5, 6.25, 3.13 and 1.57 ppm, respectively. Aqueous acetone solution was used as control. Fresh maize leaves were immersed in the solution for 3 seconds, dried at room temperature, and fed to the tested insects. Each treatment was tested with 10 insects and repeated for 3 tumblers (3 times). The number of killed insects was counted after 24 hours to calculate the mortality according to the above mentioned formula.

Plutella xylostella = assay: Insecticidal activities to diamondback moth, feeding dipped leaves
Experimental: as §1
(4): Insecticidal Activities to Diamondback Moth
Diamondback moth (Plutella xylostella) was tested by the way of feeding dippedleaves. Fresh cabbage leaves were immersed in above mentioned solution for 3 seconds, dried at room temperature, and fed to the tested insects. Each treatment was tested with 10 insects and repeated for 3 tumblers (3 times), while water was used as control. The number of killed insects was counted after 24 hours to calculate the mortality according to the above mentioned formula.

Aphis craccivoral = assay: Insecticidal activities to aphids, immersion method
Experimental: (1): Insecticidal Activities to Aphids
Aphis (Aphis craccivoral), which belongs to Homoptera and has a piercing-sucking mouthpart, is a common insect for agricultural plant. Aphis craccivoral was tested by immersion method.
Procedure: exactly weighed various samples were independently added to N,N-dimethylformamide to form 10 g/L stock solutions. The stock solutions were diluted with 0.2 mL/L aqueous Triton X-100 solution to a concentration of 500 ppm. After stably sucking on bean sprout, the wingless adult aphis together with bean sprout were dipped into 500 ppm dilution, taken out after 5 seconds, and the excess dilution was sucked off with bibulous paper. The treated wingless adult aphis was incubated in clean vessel at a constant temperature of 23° C. Each concentration was repeated for 3 times and the control group was treated with 0.2mL/L aqueous Triton X-100 solution. The number of killed aphis was counted after 24 hours and the mortality was to calculated according to the following formula:
as §1

[2] = 500 ppm, leaf dipping and feeding, counted after 24 hours

Row | Compound | Nilaparvata lugens Mortality (%) 500 ppm (Nilaparvata lugens; in vivo) [%] | Aphis craccivoral Mortality (%) 500 ppm (Aphis craccivoral; in vivo) [%] | other results
1 | CCc1ccc(C=C(C2=NCCCN2Cc2ccc(Cl)nc2)[N+](=O)[O-])o1 [Compound 59] | 84 | 57 | Pseudaletia separate Walker Mortality (%) 500 ppm ([1]; in vivo): 86%; Plutella xylostella Mortality (%) 500 ppm (Plutella xylostella; in vivo): 100%
2 | O=[N+]([O-])C(=Cc1cc(Br)co1)C1=NCCN1Cc1ccc(Cl)nc1 [Compound 7] | – | – | Nilaparvata lugens Mortality (%) 500 ppm (Nilaparvata lugens; 500 ppm, spraying method, counted after 24 hours): 100%; Pseudaletia separate Walker Mortality (%) 500 ppm [1, 2]: 100%; Plutella xylostella Mortality (%) 500 ppm (Plutella xylostella; 500 ppm, feeding dipped leaves, counted after 24 hours): 100%; Aphis craccivoral Mortality (%) 500 ppm (Aphis craccivoral; 500 ppm, immersion method): 100%
3 | O=[N+]([O-])C(=Cc1ccoc1)C1=NCCCN1Cc1ccc(Cl)nc1 [Compound 47] | 100 | 100 | Pseudaletia separate Walker Mortality (%) 500 ppm ([1]; in vivo): 100%; Plutella xylostella Mortality (%) 500 ppm (Plutella xylostella; in vivo): 100%
4 | Cc1csc(C=C(C2=NCCN2Cc2ccc(Cl)nc2)[N+](=O)[O-])c1 [Compound 28] | 100 | 100 | Pseudaletia separate Walker Mortality (%) 500 ppm ([1]; in vivo): 100%; Plutella xylostella Mortality (%) 500 ppm (Plutella xylostella; in vivo): 100%
5 | O=[N+]([O-])C(=Cc1cc(Cl)co1)C1=NCCCN1Cc1ccc(Cl)nc1 [Compound 51] | 100 | 100 | Pseudaletia separate Walker Mortality (%) 500 ppm ([1]; in vivo): 100%; Plutella xylostella Mortality (%) 500 ppm (Plutella xylostella; in vivo): 100%
6 | C[N+]1=C(C(=Cc2sc(Cl)cc2Cl)[N+](=O)[O-])N(Cc2ccc(Cl)nc2)CC1.[Cl-] [Compound 267] | 100 | 100 | Pseudaletia separate Walker Mortality (%) 500 ppm ([1]; in vivo): 100%; Plutella xylostella Mortality (%) 500 ppm (Plutella xylostella; in vivo): 100%
7 | O=[N+]([O-])C(=Cc1oc(Br)cc1Br)C1=NCCN1Cc1ccc(Cl)nc1 [Compound 11] | 100 | 100 | Pseudaletia separate Walker Mortality (%) 500 ppm ([1]; in vivo): 100%; Plutella xylostella Mortality (%) 500 ppm (Plutella xylostella; in vivo): 100%
8 | O=[N+]([O-])/C(=C/c1ccco1)C1=NCCN1Cc1cnc(Cl)s1 [Compound 68, 1-((2-chlorothiozol-5-yl)methyl)-2-(2-(furan-2-yl)-1-nitrovinyl)-4,5-dihydro-1H-imidazole] | – | – | mortality at 500 ppm (Nilaparvata lugens; Nilaparvata lugens, 500 ppm, spraying method, counted after 24 hours, read-out: Nilaparvata lugens Mortality (%) 500 ppm): 100%; Pseudaletia separate Walker Mortality (%) 500 ppm [1, 2]: 100%; mortality at 500 ppm (Plutella xylostella; Plutella xylostella, 500 ppm, feeding dipped leaves, counted after 24 hours, read-out: Plutella xylostella Mortality (%) 500 ppm): 100%; mortality at 500 ppm (Aphis craccivoral; Aphis, 500 ppm, immersion method, read-out: Aphis craccivoral Mortality (%) 500 ppm): 100%
9 | O=[N+]([O-])C(=Cc1ccc(Cl)s1)C1=NCCN1Cc1cnc(Cl)s1 [Compound 86] | 100 | 100 | Pseudaletia separate Walker Mortality (%) 500 ppm ([1]; in vivo): 100%; Plutella xylostella Mortality (%) 500 ppm (Plutella xylostella; in vivo): 100%
10 | CN=C(C(=Cc1ccc[nH]1)[N+](=O)[O-])N(C)Cc1ccc(Cl)nc1 [Compound 170] | 34 | 89 | –
11 | CCN(Cc1ccc(Cl)nc1)C(=NC)C(=C(C)c1cccs1)[N+](=O)[O-] [Compound 200] | 100 | 100 | –
12 | CCN(Cc1ccc(Cl)nc1)C(=NC)C(=C(C)c1ccoc1)[N+](=O)[O-] [Compound 196] | 100 | 100 | –
13 | CCN(C(=NC)C(=Cc1ccoc1)[N+](=O)[O-])C(C)c1ccc(Cl)nc1 (centres unmarked) [Compound 206] | 44 | 65 | –
14 | CN=C(NCc1ccc(Cl)nc1)C(=Cc1ccc(Cl)o1)[N+](=O)[O-] [Compound 154] | 65 | 52 | –
15 | CN=C(C(=Cc1ccc([N+](=O)[O-])s1)[N+](=O)[O-])N(C)Cc1ccc(Cl)nc1 [Compound 168] | 90 | 80 | –
16 | CCN=C(C(=Cc1ccc(Cl)o1)[N+](=O)[O-])N(C)Cc1ccc(Cl)nc1 [Compound 173] | 85 | 87 | –

Row | Compound | Nilaparvata lugens Mortality (%) 500 ppm (Nilaparvata lugens; in vivo) [%] | Aphis craccivoral Mortality (%) 500 ppm (Aphis craccivoral; in vivo) [%] | other results
17 | CN=C(C(=Cc1ccsc1)[N+](=O)[O-])N(C)Cc1ccc(Cl)nc1 [Compound 237] | 98 | 87 | –
18 | CCN(Cc1ccc(Cl)nc1)C(=NC)C(=C(C)c1ccc([N+](=O)[O-])s1)[N+](=O)[O-] [Compound 202] | 100 | 100 | –
19 | CCN(Cc1ccc(Cl)nc1)C(=NC)C(=Cc1ccc([N+](=O)[O-])o1)[N+](=O)[O-] [Compound 181] | 100 | 100 | –
20 | CN=C(C(=Cc1ccc([N+](=O)[O-])o1)[N+](=O)[O-])N(C)Cc1cnc(Cl)s1 [Compound 217] | 43 | 77 | –
21 | CCN(C(=NC)C(=Cc1ccc[nH]1)[N+](=O)[O-])C(C)c1ccc(Cl)nc1 (centres unmarked) [Compound 211] | 73 | 73 | –
22 | CCN(Cc1ccc(Cl)nc1)C(=NC)C(=C(C)c1ccsc1)[N+](=O)[O-] [Compound 201] | 100 | 100 | –
23 | CN=C(C(=Cc1ccc(Br)o1)[N+](=O)[O-])N(C)Cc1cnc(Cl)s1 [Compound 219] | 87 | 87 | –
24 | CCN(Cc1ccc(Cl)nc1)C(=NC)C(=Cc1ccc[nH]1)[N+](=O)[O-] [Compound 243] | 100 | 96 | –
25 | CN=C(C(=Cc1ccc(Cl)o1)[N+](=O)[O-])N(C)Cc1ccc(Cl)nc1 [Compound 234] | 44 | 37 | –
26 | CCN(Cc1ccc(Cl)nc1)C(=NC)C(=C(C)c1ccc(Cl)o1)[N+](=O)[O-] [Compound 198] | 100 | 86 | –
27 | CCN(Cc1ccc(Cl)nc1)C(=NC)C(=C(C)c1ccc([N+](=O)[O-])o1)[N+](=O)[O-] [Compound 197] | 100 | 98 | –
28 | CCN=C(C(=Cc1ccc(Br)o1)[N+](=O)[O-])N(CC)Cc1ccc(Cl)nc1 [Compound 193] | 100 | 89 | –
29 | CCN=C(C(=Cc1ccc([N+](=O)[O-])o1)[N+](=O)[O-])N(C)Cc1ccc(Cl)nc1 [Compound 172] | 100 | 96 | –
30 | CN=C(C(=Cc1ccc(Br)o1)[N+](=O)[O-])N(C)Cc1ccc(Cl)nc1 [Compound 165] | 100 | 100 | –
31 | CN=C(C(=Cc1ccc[nH]1)[N+](=O)[O-])N(C)Cc1ccc(Cl)nc1 [Compound 240] | 68 | 77 | –
